Experimental data reported in patent publication EP1285918A1, “C7 Ester substituted taxanes as antitumor agents” (Florida State University Research Foundation, Inc., priority 2001, dated 2003).

Tested on: HCT116
Assay: In Vitro cytotoxicity measured by the cell colony formation assay
Type: cell-based
Details: Homo sapiens, HCT-116; 72 h drug incubation, colonies counted after 7 days; concentration producing 50% inhibition of colony formation; read-out: IN VITRO ID 50 (nm) HCT116
Description: In Vitro cytotoxicity measured by the cell colony formation assay
Four hundred cells (HCT116) were plated in 60 mm Petri dishes containing 2.7 mL of medium (modified McCoy's 5a medium containing 10% fetal bovine serum and 100 units/mL penicillin and […] streptomycin). The cells were incubated in a CO2 incubator at 37 °C for 5 h for attachment to the bottom of Petri dishes. The compounds identified in Example 2 were made up fresh in medium at ten times the final concentration, and then 0.3 mL of this stock solution was added to the 2.7 mL of medium in the dish. The cells were then incubated with drugs for 72 h at 37 ° C. At the end of incubation the drug-containing media were decanted, the dishes were rinsed with 4 mL of Hank's Balance Salt Solution (HBSS), 5 mL of fresh medium was added, and the dishes were returned to the incubator for colony formation. The cell colonies were counted using a colony counter after incubation for 7 days. Cell survival was calculated and the values of ID50 (the drug concentration producing 50% inhibition of colony formation) were determined for each tested compound.

Row | SMILES | IC50 [nM]
1 | CCC(=O)O[C@H]1C[C@H]2OC[C@@]2(OC(C)=O)[C@H]2[C@H](OC(=O)c3ccccc3)[C@]3(O)C[C@H](OC(=O)[C@H](O)[C@@H](NC(=O)OC(C)C)c4cccs4)C(C)=C([C@@H](O)C(=O)[C@]12C)C3(C)C [Compound 3082] | < 1
2 | CCCC(=O)O[C@H]1C[C@H]2OC[C@@]2(OC(C)=O)[C@H]2[C@H](OC(=O)c3ccccc3)[C@]3(O)C[C@H](OC(=O)[C@H](O)[C@H](C=C(C)C)NC(=O)OCC(C)C)C(C)=C([C@@H](O)C(=O)[C@]12C)C3(C)C [Compound 5131] | < 10
3 | CCC(=O)OC1CC2OCC2(OC(C)=O)C2C(OC(=O)c3ccccc3)C3(O)CC(OC(=O)C(O)C(NC(=O)c4cccs4)c4ccco4)C(C)=C(C(O)C(=O)C12C)C3(C)C (stereo not shown) [Compound 3632] | < 1
4 | CCC(=O)OC1CC2OCC2(OC(C)=O)C2C(OC(=O)c3ccccc3)C3(O)CC(OC(=O)C(O)C(NC(=O)c4cccnc4)c4cccs4)C(C)=C(C(O)C(=O)C12C)C3(C)C (stereo not shown) [Compound 4106] | < 10
5 | CCCC(=O)OC1CC2OCC2(OC(C)=O)C2C(OC(=O)c3ccccc3)C3(O)CC(OC(=O)C(O)C(NC(=O)OC(C)(C)C)c4cccs4)C(C)=C(C(O)C(=O)C12C)C3(C)C (stereo not shown) [Compound 4256] | < 1
6 | CCC(=O)O[C@H]1C[C@H]2OC[C@@]2(OC(C)=O)[C@H]2[C@H](OC(=O)c3ccccc3)[C@]3(O)C[C@H](OC(=O)[C@H](O)[C@@H](NC(=O)OCC(C)C)c4ccoc4)C(C)=C([C@@H](O)C(=O)[C@]12C)C3(C)C [Compound 4787] | < 10
7 | CCC(=O)O[C@H]1C[C@H]2OC[C@@]2(OC(C)=O)[C@H]2[C@H](OC(=O)c3ccccc3)[C@]3(O)C[C@H](OC(=O)[C@H](O)[C@@H](NC(=O)OCC(C)C)C4CC4)C(C)=C([C@@H](O)C(=O)[C@]12C)C3(C)C [Compound 5191] | < 10
8 | CC(=O)O[C@@]12CO[C@@H]1C[C@H](OC(=O)C(C)C)[C@@]1(C)C(=O)[C@H](O)C3=C(C)[C@@H](OC(=O)[C@H](O)[C@@H](NC(=O)C(C)C)c4ccco4)C[C@@](O)([C@@H](OC(=O)c4ccccc4)[C@H]21)C3(C)C [Compound 6121] | < 10
9 | CCCC(=O)O[C@H]1C[C@H]2OC[C@@]2(OC(C)=O)[C@H]2[C@H](OC(=O)c3ccccc3)[C@]3(O)C[C@H](OC(=O)[C@H](O)[C@@H](NC(=O)OC(C)(C)C)C4CC4)C(C)=C([C@@H](O)C(=O)[C@]12C)C3(C)C [Compound 5080] | < 1
10 | CCC(=O)O[C@H]1C[C@H]2OC[C@@]2(OC(C)=O)[C@H]2[C@H](OC(=O)c3ccccc3)[C@]3(O)C[C@H](OC(=O)[C@H](O)[C@@H](NC(=O)OC(C)(C)C)C4CC4)C(C)=C([C@@H](O)C(=O)[C@]12C)C3(C)C [Compound 5070] | < 10
11 | CCC(=O)O[C@H]1C[C@H]2OC[C@@]2(OC(C)=O)[C@H]2[C@H](OC(=O)c3ccccc3)[C@]3(O)C[C@H](OC(=O)[C@H](O)[C@@H](NC(=O)c4ccccc4)c4ccsc4)C(C)=C([C@@H](O)C(=O)[C@]12C)C3(C)C [Compound 3388] | < 10
12 | CC(=O)O[C@@]12CO[C@@H]1C[C@H](OC(=O)C(C)C)[C@@]1(C)C(=O)[C@H](O)C3=C(C)[C@@H](OC(=O)[C@H](O)[C@@H](NC(=O)OC(C)(C)C)c4cccs4)C[C@@](O)([C@@H](OC(=O)c4ccccc4)[C@H]21)C3(C)C [Compound 6333] | < 1
13 | CCCC(=O)O[C@H]1C[C@H]2OC[C@@]2(OC(C)=O)[C@H]2[C@H](OC(=O)c3ccccc3)[C@]3(O)C[C@H](OC(=O)[C@H](O)[C@@H](NC(=O)c4cccs4)c4cccs4)C(C)=C([C@@H](O)C(=O)[C@]12C)C3(C)C [Compound 4454] | < 1
14 | CCC(=O)OC1CC2OCC2(OC(C)=O)C2C(OC(=O)c3ccccc3)C3(O)CC(OC(=O)C(O)C(NC(=O)OCC(C)C)c4ccsc4)C(C)=C(C(O)C(=O)C12C)C3(C)C (stereo not shown) [Compound 4544] | < 10
15 | CCCC(=O)OC1CC2OCC2(OC(C)=O)C2C(OC(=O)c3ccccc3)C3(O)CC(OC(=O)C(O)C(NC(=O)OCC(C)C)c4cccs4)C(C)=C(C(O)C(=O)C12C)C3(C)C (stereo not shown) [Compound 4290] | < 10
16 | CCCC(=O)O[C@H]1C[C@H]2OC[C@@]2(OC(C)=O)[C@H]2[C@H](OC(=O)c3ccccc3)[C@]3(O)C[C@H](OC(=O)[C@H](O)[C@@H](NC(=O)OCC(C)C)c4ccoc4)C(C)=C([C@@H](O)C(=O)[C@]12C)C3(C)C [Compound 4828] | < 10
17 | CCOC(=O)N[C@@H](c1ccco1)[C@@H](O)C(=O)O[C@H]1C[C@@]2(O)[C@@H](OC(=O)c3ccccc3)[C@@H]3[C@]4(OC(C)=O)CO[C@@H]4C[C@H](OC(=O)CC)[C@@]3(C)C(=O)[C@H](O)C(=C1C)C2(C)C [Compound 3611] | < 1
18 | CCCC(=O)OC1CC2OCC2(OC(C)=O)C2C(OC(=O)c3ccccc3)C3(O)CC(OC(=O)C(O)C(NC(=O)c4ccco4)c4cccs4)C(C)=C(C(O)C(=O)C12C)C3(C)C (stereo not shown) [Compound 4219] | 29
19 | CCOC(=O)NC(c1cccs1)C(O)C(=O)OC1CC2(O)C(OC(=O)c3ccccc3)C3C4(OC(C)=O)COC4CC(OC(=O)CC)C3(C)C(=O)C(O)C(=C1C)C2(C)C (stereo not shown) [Compound 4044] | < 1
20 | CCC(C)(C)OC(=O)N[C@@H](c1ccco1)[C@@H](O)C(=O)O[C@H]1C[C@@]2(O)[C@@H](OC(=O)c3ccccc3)[C@@H]3[C@]4(OC(C)=O)CO[C@@H]4C[C@H](OC(=O)C(C)C)[C@@]3(C)C(=O)[C@H](O)C(=C1C)C2(C)C [Compound 6252] | < 1
21 | CCCC(=O)O[C@H]1C[C@H]2OC[C@@]2(OC(C)=O)[C@H]2[C@H](OC(=O)c3ccccc3)[C@]3(O)C[C@H](OC(=O)[C@H](O)[C@@H](NC(=O)OC(C)(C)CC)c4ccco4)C(C)=C([C@@H](O)C(=O)[C@]12C)C3(C)C [Compound 6272] | < 1
22 | CCC(=O)O[C@H]1C[C@H]2OC[C@@]2(OC(C)=O)[C@H]2[C@H](OC(=O)c3ccccc3)[C@]3(O)C[C@H](OC(=O)[C@H](O)[C@@H](NC(=O)OC(C)C)c4ccco4)C(C)=C([C@@H](O)C(=O)[C@]12C)C3(C)C [Compound 3444] | < 1
